Measurements taken from US20220354834A1, “METHODS AND MATERIALS FOR TREATING NEUROTOXICITY” (Cavion, Inc., priority 2019, published 2022).

Assays:
[1] = system: sciatic nerves (BTZ-induced CIPN); assay: CIPN-reversal study: sciatic nerve conduction velocity; format: in vivo, Wistar rat
Method: (§1) Wistar female rats (n=52) (Envigo, Correzzano, Italy) at 10-11 weeks of age were utilized. The study was divided into 2 phases of 4 weeks each. […] Body weight was measured periodically during phase 1 from baseline (day 1) to day 28. At baseline and conclusion of phase 1 (day 28), nerve conduction velocity (NCV) was performed on caudal and sciatic nerves and Dynamic Aesthesiometer Test (DAT) measured mechanical threshold (MT) of the hind paw. […] Body weight was measured periodically from baseline (day 28) to day 56 (termination). NCV and MT were measured in all 4 groups at baseline and on day 35 and 56. […] At termination, sciatic nerves were obtained for β-tubulin polymerization and skin samples were procured for intraepidermal nerve fiber (IENF) density and histopathology.
(§2) NCV (meters/second) was obtained from caudal and sciatic nerves with an electromyography tool (Myto 2, ABN Neuro, Firenze, Italy). Caudal NCV was measured by placement of recording needle electrodes distally in the tail with stimulating needle electrodes 5 cm and 10 cm proximal to recording point. Peak latencies of potentials recorded at the 2 sites after nerve stimulation were determined and NCV was calculated. Sciatic NCV was determined by placement of needle recording electrodes near ankle bone and stimulating electrodes close to thigh. Peak latencies were recorded similar to caudal nerve and NCV was calculated. NCV was performed under standard conditions in a temperature-controlled facility (22±2° C.) and rats were under isoflurane anesthesia with monitoring of vital signs.

[2] = system: caudal nerves (BTZ-induced CIPN); assay: CIPN-reversal study: caudal nerve conduction velocity; format: in vivo, Wistar rat
Method: as §1, §2

[3] = system: human MMCs (RPMI 8226, MM.1S, U266B1); assay: In vitro cytotoxicity and combination (BTZ and CX-8998) interference study, SRB assay in the 3 MCLs; format: cell-based; settings: 72 hours
Method: (§3) Cells were plated in 96-well plates (Eppendorf, Milano, Italy) at 10000 cells/well. […] After incubation, BTZ was diluted in culture medium at dose range for testing. Cells were fixed with trichloroacetic acid for 1 hour. Cells were stained with a solution of SRB in 1% acetic acid for 15 minutes. Unbound dye was removed by 5 washes with 1% acetic acid. Bound dye was dissolved with a solution of Tris (hydroxymethyl) aminomethane base and absorbance of content was measured at […]. Growth inhibition was expressed as percentage of DMSO control absorbance of cells and corrected for absorbance before addition of drug.
Differences in percent cell survival between each drug or drug combination and control were analyzed by non-linear least squares with statistical significance at p<0.05.

proteasome = assay: Proteasome inhibition assay in PBMCs of treated rats; format: in vivo, rat
Method: as §1

RPMI 8226 cells = assay: In vitro BTZ cytotoxicity study (SRB assay); format: cell-based; settings: Homo sapiens, 72 hours, read-out: IC50 of % cell survival
MM.1S cells = assay: In vitro BTZ cytotoxicity study (SRB assay); format: cell-based; settings: Homo sapiens, MM1.S, 72 hours, read-out: IC50 of % cell survival
Method: (§4) MM.1S and U266B1 cells were obtained from the American Type Culture Collection (San Giovanni, Italy). All cell lines were maintained in floating culture with RPMI medium that contained 2 mM L-glutamine supplemented with 10% FBS, penicillin and streptomycin. MM.1S cell medium was supplemented with 1.5 g/L sodium bicarbonate, 10 mM HEPES and 1 mM sodium pyruvate. Cells were grown in 75 cm^2 culture flasks for floating cells (Corning Inc. Corning, N.Y., USA) at 37° C. in 5% CO2 and 95% air.
as §3

U266B1 cells = assay: In vitro BTZ cytotoxicity study (SRB assay); format: cell-based; settings: Homo sapiens, 72 hours, read-out: IC50 of % cell survival
Method: as §4, §3

[4] = BTZ vs BTZ+ CX-8998 3 mg/kg, P > 0.05 ns
[5] = BTZ vs BTZ+ CX-8998 10 mg/kg, P > 0.05 ns
[6] = BTZ vs BTZ+ CX-8998 30 mg/kg, P > 0.05 ns
[7] = BTZ+ CX-8998 3 mg/kg vs BTZ+ CX-8998 10 mg/kg, P > 0.05 ns
[8] = BTZ+ CX-8998 3 mg/kg vs BTZ+ CX-8998 30 mg/kg, P > 0.05 ns
[9] = BTZ+ CX-8998 10 mg/kg vs BTZ+ CX-8998 30 mg/kg, P > 0.05 ns
[10] = CTRL vs BTZ+ CX-8998 3 mg/kg, P > 0.05 ns
[11] = CTRL vs BTZ+ CX-8998 10 mg/kg, P > 0.05 ns
[12] = CTRL vs BTZ+ CX-8998 30 mg/kg, P > 0.05 ns

## CC(C)c1ccc(CC(=O)N[C@H](C)c2ccc(OCC(F)(F)F)cn2)cc1 [CX-8998, (R)-2-(4-Isopropylphenyl)-N-(1-(5-(2,2,2-Trifluoroethoxy)pyridin-2-yl)ethyl)acetamide]
[1]; [4]
  NCV OF SCIATIC NERVE (5 weeks), Difference in rank sum (Dunn's Multiple Comparison Test): 6.667
  NCV OF SCIATIC NERVE (8 weeks), Difference in rank sum (Dunn's Multiple Comparison Test): −10.12
[1]; BTZ vs BTZ+ CX-8998 10 mg/kg, P < 0.05 *
  NCV OF SCIATIC NERVE (8 weeks), Difference in rank sum (Dunn's Multiple Comparison Test): −19.26
[1]; [5]
  NCV OF SCIATIC NERVE (5 weeks), Difference in rank sum (Dunn's Multiple Comparison Test): 2.583
[1]; BTZ vs BTZ+ CX-8998 30 mg/kg, P < 0.05 *
  NCV OF SCIATIC NERVE (8 weeks), Difference in rank sum (Dunn's Multiple Comparison Test): −19.77
[1]; [6]
  NCV OF SCIATIC NERVE (5 weeks), Difference in rank sum (Dunn's Multiple Comparison Test): 5.250
[1]; [7]
  NCV OF SCIATIC NERVE (5 weeks), Difference in rank sum (Dunn's Multiple Comparison Test): −4.083
  NCV OF SCIATIC NERVE (8 weeks), Difference in rank sum (Dunn's Multiple Comparison Test): −9.136
[1]; [8]
  NCV OF SCIATIC NERVE (5 weeks), Difference in rank sum (Dunn's Multiple Comparison Test): −1.417
  NCV OF SCIATIC NERVE (8 weeks), Difference in rank sum (Dunn's Multiple Comparison Test): −9.652
[1]; [9]
  NCV OF SCIATIC NERVE (5 weeks), Difference in rank sum (Dunn's Multiple Comparison Test): 2.667
  NCV OF SCIATIC NERVE (8 weeks), Difference in rank sum (Dunn's Multiple Comparison Test): −0.5152
[1]; [10]
  NCV OF SCIATIC NERVE (5 weeks), Difference in rank sum (Dunn's Multiple Comparison Test): 8.917
  NCV OF SCIATIC NERVE (8 weeks), Difference in rank sum (Dunn's Multiple Comparison Test): 11.98
[1]; [11]
  NCV OF SCIATIC NERVE (5 weeks), Difference in rank sum (Dunn's Multiple Comparison Test): 4.833
  NCV OF SCIATIC NERVE (8 weeks), Difference in rank sum (Dunn's Multiple Comparison Test): 2.848
[1]; [12]
  NCV OF SCIATIC NERVE (5 weeks), Difference in rank sum (Dunn's Multiple Comparison Test): 7.500
  NCV OF SCIATIC NERVE (8 weeks), Difference in rank sum (Dunn's Multiple Comparison Test): 2.333
[2]; [4]
  NCV OF CAUDAL NERVE (5 weeks), Difference in rank sum (Dunn's Multiple Comparison Test): −11.21
  NCV OF CAUDAL NERVE (8 weeks), Difference in rank sum (Dunn's Multiple Comparison Test): −11.55
[2]; BTZ vs BTZ+ CX-8998 10 mg/kg, P < 0.01 **
  NCV OF CAUDAL NERVE (8 weeks), Difference in rank sum (Dunn's Multiple Comparison Test): −22.36
[2]; [5]
  NCV OF CAUDAL NERVE (5 weeks), Difference in rank sum (Dunn's Multiple Comparison Test): −4.625
[2]; BTZ vs BTZ+ CX-8998 30 mg/kg, P < 0.001 ***
  NCV OF CAUDAL NERVE (8 weeks), Difference in rank sum (Dunn's Multiple Comparison Test): −30.42
[2]; [6]
  NCV OF CAUDAL NERVE (5 weeks), Difference in rank sum (Dunn's Multiple Comparison Test): −11.04
[2]; [7]
  NCV OF CAUDAL NERVE (5 weeks), Difference in rank sum (Dunn's Multiple Comparison Test): 6.583
  NCV OF CAUDAL NERVE (8 weeks), Difference in rank sum (Dunn's Multiple Comparison Test): −10.82
[2]; BTZ+ CX-8998 3 mg/kg vs BTZ+ CX-8998 30 mg/kg, P < 0.05 *
  NCV OF CAUDAL NERVE (8 weeks), Difference in rank sum (Dunn's Multiple Comparison Test): −18.87
[2]; [8]
  NCV OF CAUDAL NERVE (5 weeks), Difference in rank sum (Dunn's Multiple Comparison Test): 0.1667
[2]; [9]
  NCV OF CAUDAL NERVE (5 weeks), Difference in rank sum (Dunn's Multiple Comparison Test): −6.417
  NCV OF CAUDAL NERVE (8 weeks), Difference in rank sum (Dunn's Multiple Comparison Test): −8.053
[2]; CTRL vs BTZ+ CX-8998 3 mg/kg, P < 0.01 **
  NCV OF CAUDAL NERVE (8 weeks), Difference in rank sum (Dunn's Multiple Comparison Test): 25.45
[2]; [10]
  NCV OF CAUDAL NERVE (5 weeks), Difference in rank sum (Dunn's Multiple Comparison Test): 4.542
[2]; [11]
  NCV OF CAUDAL NERVE (5 weeks), Difference in rank sum (Dunn's Multiple Comparison Test): 11.13
  NCV OF CAUDAL NERVE (8 weeks), Difference in rank sum (Dunn's Multiple Comparison Test): 14.64
[2]; [12]
  NCV OF CAUDAL NERVE (5 weeks), Difference in rank sum (Dunn's Multiple Comparison Test): 4.708
  NCV OF CAUDAL NERVE (8 weeks), Difference in rank sum (Dunn's Multiple Comparison Test): 6.583

## CC(C)C[C@H](NC(=O)[C@H](Cc1ccccc1)NC(=O)c1cnccn1)B(O)O [BTZ, bortezomib, reference compound]
[3]; BTZ 0.05-250 nM, 3 MCLs
  inhibition of cell growth (cytotoxicity): concentration-dependent inhibition of cell growth
[3]; BTZ alone at IC50 (6, 4, 2.5 nM) vs DMSO control, p<0.001
  percent cell survival: significantly reduced
[1]; BTZ vs control at week 5
  sciatic NCV: numerically less than control but the difference was not statistically significant
[1]; BTZ vs control at weeks 4 and 8 (p<0.01, p<0.05)
  sciatic NCV: significantly reduced
[1]; CTRL vs BTZ, P < 0.05 *
  NCV OF SCIATIC NERVE (8 weeks), Difference in rank sum (Dunn's Multiple Comparison Test): 22.10
[1]; CTRL vs BTZ, P > 0.05 ns
  NCV OF SCIATIC NERVE (5 weeks), Difference in rank sum (Dunn's Multiple Comparison Test): 2.250
proteasome; BTZ, week 4 vs baseline, p<0.05
  % proteasome activity in circulating PBMCs: significant inhibition
proteasome; weeks 5 and 8, BTZ alone
  proteasome activity: similarly inhibited
[2]; BTZ vs control at weeks 4, 5 and 8 (p<0.01, p<0.05, p<0.001)
  caudal NCV: significantly reduced
[2]; CTRL vs BTZ, P < 0.001 ***
  NCV OF CAUDAL NERVE (8 weeks), Difference in rank sum (Dunn's Multiple Comparison Test): 37.00
[2]; CTRL vs BTZ, P < 0.05 *
  NCV OF CAUDAL NERVE (5 weeks), Difference in rank sum (Dunn's Multiple Comparison Test): 15.75
RPMI 8226 cells
  IC50: 4 ± 1.7 nM
MM.1S cells
  IC50: 6 ± 0.5 nM
U266B1 cells
  IC50: 2.5 ± 0.6 nM
